Bridge positions count the residues as written; N and C are the ends. Square brackets hold non-standard residues; d marks the D form. Peptide text beside a SMILES is read from it. * marks the point of attachment. ξ: configuration not given here. Tyr(3-NO2) = N[C@@H](Cc1ccc(O)c([N+](=O)[O-])c1)C(=O)O; Phe(4-COOH) = N[C@@H](Cc1ccc(C(=O)O)cc1)C(=O)O; Bip = N[C@@H](Cc1ccc(-c2ccccc2)cc1)C(=O)O; Phe(3-Me) = Cc1cccc(C[C@H](N)C(=O)O)c1; 4Pal = N[C@@H](Cc1ccncc1)C(=O)O; Cha = N[C@@H](CC1CCCCC1)C(=O)O; Cit = NC(=O)NCCC[C@H](N)C(=O)O; Ile(3ξ) = CCC(C)[C@H](N)C(=O)O; Thr(3ξ) = CC(O)[C@H](N)C(=O)O; Carboxymethyl = O=C(O)C*; NMeA = CN[C@@H](C)C(=O)O; Dab = NCC[C@H](N)C(=O)O
What follows are molecules tested against T1, PE-labeled human PD-L1-Ig binding to Jurkat cell line over-expressing human PD-1 (Jurkat-PD-1) (Homo sapiens, UniProt Q15116) (assay: Jurkat-PD-1 Cell Binding High-Content Screening Assay (CBA): Method 1). Settings: Jurkat-hPD-1 cells, PE-labeled PD-L1-Ig 20 nM final; read-out: Jurkat HPDL1 PD1 IC50 (uM) (Method 1).
T1 construct: expressed in transfected cells; host or cells: Jurkat
T1 sequence (Q15116 25-288): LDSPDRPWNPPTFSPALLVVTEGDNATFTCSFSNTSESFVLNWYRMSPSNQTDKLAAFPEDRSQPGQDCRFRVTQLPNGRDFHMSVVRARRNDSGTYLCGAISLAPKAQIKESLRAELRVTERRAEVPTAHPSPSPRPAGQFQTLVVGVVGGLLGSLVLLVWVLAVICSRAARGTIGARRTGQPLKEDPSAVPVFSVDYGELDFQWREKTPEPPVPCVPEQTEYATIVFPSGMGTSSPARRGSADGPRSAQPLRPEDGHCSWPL

IC50 [µM]	SMILES
0.02	CCC(C)[C@@H]1NC(=O)[C@H](Cc2ccc(-c3ccccc3)cc2)NC(=O)[C@H](CC(C)C)NC(=O)[C@H](Cc2c[nH]c3ccccc23)NC(=O)[C@H](CC(=O)O)NC(=O)[C@H](Cc2ccc(C(=O)O)cc2)NC(=O)[C@H](Cc2ccc(OCC(=O)O)cc2)NC(=O)CSC[C@@H](C(=O)N[C@@H](CO)C(N)=O)NC(=O)[C@H](CCC(N)=O)NC(=O)[C@H](C(C)C)NC(=O)[C@H](CC2CCCCC2)NC(=O)[C@H](CCN)NC(=O)[C@@H](CC(C)C)NC(=O)[C@H](C)N(C)C1=O (stereo partly drawn) [Compound 1931] ({CH2CO}-Y(Carboxymethyl)[Phe(4-COOH)]DWL[Bip][Ile(3ξ)][NMeA][dL][Dab][Cha]VQCS-NH2; thioether N-14)
0.01	Cc1cccc(C[C@@H]2NC(=O)[C@H](CC(=O)O)NC(=O)[C@H](Cc3ccc(OCC(=O)O)cc3)NC(=O)[C@H](Cc3ccncc3)NC(=O)CSC[C@@H](C(=O)N[C@@H](C)C(N)=O)NC(=O)[C@H]([C@@H](C)O)NC(=O)[C@H](C(C)C)NC(=O)[C@H](CC(C)C)NC(=O)[C@H](CCN)NC(=O)[C@@H](CC(C)C)NC(=O)[C@H](C)N(C)C(=O)[C@H](C(C)C)NC(=O)[C@H](Cc3ccc(-c4ccccc4)cc3)NC(=O)[C@H](C(C)C)NC2=O)c1 [Compound 1419] ({CH2CO}-[4Pal]Y(Carboxymethyl)D[Phe(3-Me)]V[Bip]V[NMeA][dL][Dab]LVTCA-NH2; thioether N-14)
0.04	CC(C)C[C@@H]1NC(=O)[C@H](Cc2c[nH]c3ccccc23)NC(=O)[C@H](CC(=O)O)NC(=O)[C@H](Cc2ccc(O)cc2)NC(=O)[C@H](Cc2ccccc2)NC(=O)CSC[C@@H](C(=O)N[C@@H](C)C(N)=O)NC(=O)[C@H](CO)NC(=O)[C@H](C(C)C)NC(=O)[C@H](CC(C)C)NC(=O)[C@H](CC(N)=O)NC(=O)[C@@H](C)NC(=O)[C@H](C)N(C)C(=O)[C@H](CCC(=O)O)NC(=O)[C@H](Cc2ccc(-c3ccccc3)cc2)NC1=O [Compound 1768] ({CH2CO}-FYDWL[Bip]E[NMeA][dA]NLVSCA-NH2; thioether N-14)
0.04	CC(C)C[C@@H]1NC(=O)[C@H](CCN)NC(=O)[C@@H](CC(C)C)NC(=O)[C@H](C)N(C)C(=O)[C@H](CCCNC(N)=O)NC(=O)[C@H](Cc2ccc(-c3ccccc3)cc2)NC(=O)[C@H](C(C)C)NC(=O)[C@H](Cc2c[nH]c3ccccc23)NC(=O)[C@H](CC(=O)O)NC(=O)[C@H](Cc2ccc(O)c([N+](=O)[O-])c2)NC(=O)[C@H](CC(N)=O)NC(=O)CSC[C@@H](C(=O)N[C@@H](C)C(N)=O)NC(=O)[C@H]([C@@H](C)O)NC(=O)[C@H](C(C)C)NC1=O [Compound 1319] ({CH2CO}-N[Tyr(3-NO2)]DWV[Bip][Cit][NMeA][dL][Dab]LVTCA-NH2; thioether N-14)
0.01	CC(C)C[C@@H]1NC(=O)[C@H](Cc2c[nH]c3ccccc23)NC(=O)[C@H](CC(=O)O)NC(=O)[C@H](Cc2ccc(O)cc2)NC(=O)[C@H](Cc2ccccc2)NC(=O)CSC[C@@H](C(=O)NCC(N)=O)NC(=O)[C@H](CO)NC(=O)[C@H](C(C)C)NC(=O)[C@H](CC(C)C)NC(=O)[C@H](CC(N)=O)NC(=O)[C@@H](C)NC(=O)[C@H](C)N(C)C(=O)[C@H](C(C)C)NC(=O)[C@H](Cc2ccc(-c3ccccc3)cc2)NC1=O [Compound 1729] ({CH2CO}-FYDWL[Bip]V[NMeA][dA]NLVSCG-NH2; thioether N-14)
0.04	CCC(C)[C@@H]1NC(=O)[C@H](Cc2ccc(-c3ccccc3)cc2)NC(=O)[C@H](C(C)C)NC(=O)[C@H](Cc2c[nH]c3ccccc23)NC(=O)[C@H](CC(=O)O)NC(=O)[C@H](Cc2ccc(OCC(=O)O)cc2)NC(=O)[C@H](C(C)O)NC(=O)CSC[C@@H](C(N)=O)NC(=O)[C@H](C(C)O)NC(=O)[C@H](C(C)C)NC(=O)[C@H](CC2CCCCC2)NC(=O)[C@H](CCN)NC(=O)[C@@H](CC(C)C)NC(=O)[C@H](C)N(C)C1=O (stereo partly drawn) [Compound 2248] ({CH2CO}-[Thr(3ξ)]Y(Carboxymethyl)DWV[Bip][Ile(3ξ)][NMeA][dL][Dab][Cha]V[Thr(3ξ)]C-NH2; thioether N-14)
